For one assay, the target named is T1, hEg5-367H (Homo sapiens, UniProt P52732).
T1 construct: motor domain (amino acid residues 1–367) of human Eg5; His6 (C); made in house
T1 sequence (P52732 1-367): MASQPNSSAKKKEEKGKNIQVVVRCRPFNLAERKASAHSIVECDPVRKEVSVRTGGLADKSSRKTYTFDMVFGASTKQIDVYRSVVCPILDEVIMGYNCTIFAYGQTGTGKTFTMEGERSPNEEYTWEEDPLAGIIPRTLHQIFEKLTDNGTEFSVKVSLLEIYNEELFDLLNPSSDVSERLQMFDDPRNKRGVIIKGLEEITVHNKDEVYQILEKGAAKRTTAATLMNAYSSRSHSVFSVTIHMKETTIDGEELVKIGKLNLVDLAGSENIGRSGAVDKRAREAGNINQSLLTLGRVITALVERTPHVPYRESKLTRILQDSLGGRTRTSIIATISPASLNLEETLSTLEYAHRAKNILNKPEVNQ
Briefly: ATP hydrolysis by recombinant human Eg5 motor domain (NADH-enzyme coupled assay). Format: biochemical. How it is done: (§1) Figure 2 Structure-activity relationship of monastrol derivatives. (A) Scheme depicting the Biginelli condensation, a one-pot reaction for preparing monastrol derivatives. […] Each data point is the average of three independent experiments. […] Each cell-based assay was performed in duplicate.
We used a modified PCR mutagenesis protocol to introduce mutations into hEg5-367H, a plasmid encoding the C-terminally His6-tagged motor domain (amino acid residues 1–367) of human Eg5. The wild-type and mutant proteins were expressed and purified using Ni-NTA affinity chromatography and concentrated to between 3 and 10 mg/ml protein as described.
(§2) ATP hydrolysis by recombinantly expressed kinesin motor domains was measured using an NADH-enzyme coupled assay. ATP hydrolysis was measured in KC25 buffer supplemented with 5 μM taxol, 1 mM ATP-KOH (pH 7.0), the appropriate concentration of motor domain, and the appropriate concentrations of taxol-polymerized microtubules.

The test system of the next assay is BS-C-1 cells. As to the kind of experiment: Monoaster formation in tissue culture cells (manual count of mitotic cells). The class given is cell-based, green monkey. The conditions noted are these: Chlorocebus sabaeus, BSC-1, 6 h, read-out: Cells: monoaster formation score (drug concentration with roughly equal monastral and bipolar spindles). How it is done: as §1
(§3) Conditions for growing the following cell lines are as described: D. rerio AB9 (37), D. melanogaster KC167 [38], and BS-C-1 green monkey kidney cells. For immunofluorescence microscopy, cells were grown on 12 mm circular coverslips to 30 % confluence, treated medium supplemented with drug and 0.2% DMSO, or a DMSO alone, for 6 hours, fixed with formaldehyde, and stained for DNA and microtubules, as described. D. melanogaster KC167 cells were cultured in Schneider's Drosophila Medium (GIBCO) whereas D. rerio AB9 cells and BS-C-1 green monkey kidney cells were cultured at 37°C in Dulbecco's Minimal medium in the presence of 10 % heat inactivated fetal calf serum.

For the next assay, the target named is T2, hEg5-367H (R119L) (Homo sapiens, UniProt P52732, R119L).
T2 sequence (P52732 1-367 R119L): T1 sequence (P52732 1-367) with R119L
As to the kind of experiment: ATP hydrolysis by Eg5 motor domain mutant R119L. The class given is biochemical. The conditions noted are these: Figure 4B; legend: basal ATP hydrolysis; read-out: IC50(μM) of monastrol, (R119L).
Description: (§4) Figure 4 Mutagenesis of the monastrol binding site in human Eg5. (A) Design of mutations in the human Eg5 motor domain. Amino acid side chains that are not conserved between Eg5 and conventional kinesin were targeted, either introducing chimeric or rationally designed mutations (asterix for targeted point mutants) to test the contribution of residues to the drug-sensitivity of Eg5. (B) Steady-state enzymatic parameters for engineered human Eg5 motor domain mutants. Steady-state ATP hydrolysis by Eg5 was measured using an NADH-enzyme coupled assay varying the concentration of ATP, microtubules, or monastrol to obtain the microtubule concentration for half-maximal stimulation (K0.5MT), the maximal rate of microtubule-stimulated ATP hydrolysis (kcat), and the concentration of monastrol that inhibits basal ATP hydrolysis by 50 % (IC50), as described.
(§5) We used a modified PCR mutagenesis protocol to introduce mutations into hEg5-367H, a plasmid encoding the C-terminally His6-tagged motor domain (amino acid residues 1–367) of human Eg5. […]
as §2

For a further assay, the target named is T3, hEg5-367H (Y211M) (Homo sapiens, UniProt P52732, Y211M).
T3 sequence (P52732 1-367 Y211M): T1 sequence (P52732 1-367) with Y211M
As to the kind of experiment: ATP hydrolysis by Eg5 motor domain mutant Y211M. The class given is biochemical. The conditions noted are these: Figure 4B; legend: basal ATP hydrolysis; read-out: IC50(μM) of monastrol, (Y211M).
Description: as §4, §5, §2

A further assay has as its system KC167 cells. Briefly: Spindle phenotype of Drosophila cells treated with monastrol. The class given is cell-based, D. melanogaster. The note with it: data not shown.
Description: Monastrol binds a hydrophobic pocket between loop 5 and α3 that is poorly conserved among kinesins, resulting in specificity for vertebrate Eg5 homologs. […] Monastrol is known to inhibit human and Xenopus Eg5 [7, 9], but not BimC [27]. To test its effect on D. rerio Eg5 and Klp-61F, we treated AB9 and KC167 cells with monastrol. […] To obtain unambiguous evidence, we cloned the motor domain of Klp-61F and subjected the recombinant protein to ATPase assays in the presence or absence of microtubules.
as §3

Another assay has as its system Xenopus Eg5. Also noted: method as in PMID 10542155, PMID 10973989. The note with it: cited from earlier work.
A further assay has as its system BimC. Also noted: method as in PMID 12525161. The note with it: cited from earlier work.

Positions count from the first letter of the chain named. Like-named read-outs stand apart in the source and are kept apart here.

One may read the IC50 as the concentration that gives 50% inhibition. With `CCOC(=O)C1=C(C)NC(=S)NC1c1cccc(O)c1` (centres unmarked) [Monastrol], the 50% inhibitory concentration (IC50) at hEg5-367H (500 nM hEg5-367H, KC25 buffer, 1 mM ATP-KOH (pH 7.0), 1 μM taxol-stabilized microtubules, read-out: IC50 (μM), inhibition of ATP hydrolysis by Eg5 motor domain) is 5.2 ± 0.4 µM; on hEg5-367H (wild-type motor domain, Figure 4B, legend: basal ATP hydrolysis, read-out: IC50(μM) of monastrol, hEg5-367H) it was 10 ± 2 µM; at hEg5-367H (R119L), 17 ± 2 µM; on hEg5-367H (Y211M) it was 0.8 ± 0.3 µM. Further, the EC50 in the assay with BS-C-1 cells was below 50 µM. For the same compound, the “Effect on spindles in Drosophila cells” value in the assay on KC167 cells is “normal, bipolar spindles”. Besides, the “Inhibition of Xenopus Eg5” value in the assay on Xenopus Eg5 was “inhibit”. Besides, in the assay on BimC, the “Inhibition of BimC” value is given as “not”.
